Assay type in all cases: cell-based
One assay addresses T1, HER2 YVMA (Homo sapiens, UniProt P04626, INS775YVMA).
T1 construct: expressed in transfected cells; host or cells: human HEK cells, retroviral transduction, doxycycline-inducible expression
The assay is described as follows: pHER2 (ERBB2) YVMA assay: phosphorylation of HER2 YVMA at Tyr1221/1222 in HEK cells (AlphaScreen Surefire). To be noted: doxycycline induced, 4 h with compound. The protocol: For the assay, HEK HER2 YVMA cells are seeded in MEM medium with 10% FBS. 4 hours prior to compound addition, HER2 YVMA expression is induced using 1 μg/mL Doxycycline. […] Subsequently, 60.000 cells/well in 60 μL are added. Cells are incubated with compound for 4 h at 37° C. […] The mixture is incubated at a temperature of 20-25° C. with shaking (700 rpm) for 20 min. After centrifugation, 4 μL of the lysate are transferred to Proxiplates. […] Plates are shaken for 1 min (1400 rpm) and incubated for 2 h at a temperature of 20-25° C. in the dark. […] Plates are shaken for 1 min (1400 rpm) and incubated for 2 h at a temperature of 20-25° C. in the dark. Plates are subsequently analyzed using an Envision reader platform. […] IC50 values are computed from these values in the MEGASTAR IC50 application using a 4 parametric logistic model. […] The results of the assay are provided as IC50 values.
A general note: Bead proximity is the source of the signal in Alpha formats.

A further assay addresses T2, EGFR wild type (WT) (Homo sapiens, UniProt P00533).
T2 construct: expressed in transfected cells; host or cells: human HEK cells (ATCC CRL-1573), retroviral transduction
The assay is described as follows: pEGFR assay: phosphorylation of EGFR at Tyr1068 in HEK cells expressing EGFR WT (AlphaScreen Surefire). The conditions noted are these: 4 h with compound. The protocol: This assay quantifies the phosphorylation of EGFR at Tyr1068 and is used to measure the inhibitory effect of compounds on the transgenic EGFR wild type (WT) protein expressed in HEK cells.
Transduced cells are selected using puromycin. p-EGFR Tyr1068 is determined using the AlphaScreen Surefire pEGF Receptor (Tyr1068) Assay (PerkinElmer, TGRERS). For the assay, HEK EGFR WT cells are seeded in MEM medium with 10% FBS. […] Subsequently, 60.000 cells/well in 60 μL are added. Cells are incubated with compound for 4 h at 37° C. […] The mixture is incubated at a temperature of 20-25° C. with shaking (700 rpm) for 20 min. After centrifugation, 4 μL of the lysate are transferred to Proxiplates. […] Plates are shaken for 1 min (1400 rpm) and incubated for 2 h at a temperature of (20-25° C.) in the dark. […] Plates are shaken for 1 min (1400 rpm) and incubated for 2 h at a temperature of (20-25° C.) in the dark. Plates are subsequently analyzed using an Envision reader platform. […] IC50 values are computed from these values in the MEGASTAR IC50 application using a 4 parametric logistic model.
This cellular phospho-EGFR (pEGFR) compound dose-response assay quantifies the phosphorylation of EGFR at Tyr1068 in HEK cells expressing EGFR WT. The results of the assay are provided as IC50 values.

Assay [1] concerns NCI-H2170 (HER2 wild type) cells. Kind of assay: Tumor cell line proliferation assay, NCI-H2170 (HER2 wild type), CellTiter-Glo. To be noted: Homo sapiens, 72 h, read-out: GI50 NCI H-2170 HER2 wt amp. The protocol: (§1) For proliferation assays, NCI-H2170 (HER2 wild type), NCI-H2170 HER2 YVMA and EGFR WT dependent A431 cells are used. NCI-H2170 HER2 YVMA or NCI-H2170 cells are seeded into 96-well plates at 750 cells/60 μL in growth media (RPMI ATCC+10% FCS, +Penicillin/Streptomycin). […] Compounds are added by using a HP D3000 Digital Dispenser one day after plating the cells. All treatments are performed in technical triplicates. Treated cells are incubated for 72 h at 37° C. with 5% CO2. CellTiter-Glo® Luminescent Cell Viability Assay (Promega) is performed and chemoluminescence is measured by using the multilabel Plate Reader VICTOR X4. The raw data are imported into and analyzed with the Boehringer Ingelheim proprietary software MegaLab (curve fitting based on the program PRISM, GraphPad Inc.).
For orientation: In ATP-based viability assays light output follows the ATP content of the culture.

Assay [2] concerns NCI-H2170 HER2 YVMA cells. Kind of assay: Tumor cell line proliferation assay, NCI-H2170 HER2 YVMA, CellTiter-Glo. To be noted: Homo sapiens, 72 h, read-out: GI50 NCI H-2170 HER2 YVMA.
Source text: HER2 YVMA Tumor Cell Line Model Generation and Proliferation Assays
Homology-directed genome engineering is employed to insert a 12 nucleotide sequence encoding YVMA into Exon 20 of the genomic HER2 locus in NCI-H2170 cells. […] The DNA template containing the HER2 exon 20 YVMA insertion variant was obtained from GenScript. PCR followed by Sanger sequencing is used to confirm the presence of the 12-nucleotide insertion in HER2 Exon 20 resulting in the YVMA amino acid duplication.
as §1

Assay [3] has as its system EGFR WT dependent A431 cells. Kind of assay: Tumor cell line proliferation assay, EGFR WT dependent A431 cells, CellTiter-Glo. The conditions noted are these: Homo sapiens, A-431, 72 h, read-out: GI50 A431 EGFR wt amp. The protocol:
as §1

A further assay has as its system Ba/F3 cells HER2 WT. Kind of assay: Ba/F3 proliferation assay, HER2 WT, CellTiter-Glo. To be noted: Mus musculus, BaF3, 72 h. The protocol: (§2) Ba/F3 Cell Model Generation and Proliferation Assays
(§3) Plasmids containing HER2 mutants and EGFR WT were obtained from GeneScript. To generate EGFR/HER2-dependent Ba/F3 models, Ba/F3 cells are transduced with retroviruses containing vectors that harbor EGFR WT, HER2 WT or HER2 mutants (YVMA). Platinum-E cells (Cell Biolabs) are used for retrovirus packaging. Retrovirus is added to Ba/F3 cells. To ensure infection, 4 μg/mL polybrene is added and cells are spin-infected. Infection efficiency is confirmed by measuring GFP-positive cells using a cell analyzer. Cells with an infection efficiency of 10% to 20% are further cultivated and puromycin selection with 1 μg/mL is initiated. As a control, parental Ba/F3 cells are used to assess the selection status. Selection is considered successful when parental Ba/F3 cells cultures die. To evaluate the transforming potential of HER2 mutations, the growth medium is no longer supplemented with IL-3. Ba/F3 cells harboring the empty vector are used as a control. A switch from IL-3 to EGF is performed for Ba/F3 cells expressing EGFR WT known for its dependency on EGF ligand. Approximately ten days before conducting the experiments, puromycin is left out. For proliferation assays (data in tables 10 and 12), Ba/F3 cells are seeded into 96-well plates at 5×10^3 cells/100 μL in growth media. Compounds are added by using a HP D3000 Digital Dispenser. All treatments are performed in technical triplicates. Treated cells are incubated for 72 h at 37° C. with 5% CO2. A CellTiter-Glo® Luminescent Cell Viability Assay (Promega) is performed and chemoluminescence is measured by using the multilabel Plate Reader VICTOR X4. The raw data are imported into and analyzed with the Boehringer Ingelheim proprietary software MegaLab (curve fitting based on the program PRISM, GraphPad Inc.).

Assay [4] relates to Ba/F3 cells HER2 mutants (YVMA). The assay is described as follows: Ba/F3 proliferation assay, HER2 YVMA, CellTiter-Glo. To be noted: Mus musculus, BaF3, 72 h. The protocol: as §2, §3
Assay [5] concerns Ba/F3 cells expressing EGFR WT. Kind of assay: Ba/F3 proliferation assay, EGFR WT (EGF dependent), CellTiter-Glo. To be noted: Mus musculus, BaF3, EGF instead of IL-3, 72 h, read-out: GI50 BAF3 EGF dep. The protocol:
as §2, §3

What is called IC50 is the concentration needed to halve the response being measured. Broadly, the GI50 is the concentration that inhibits growth by half.

T1 sequence (P04626 with tags, fused parts or gaps INS775YVMA): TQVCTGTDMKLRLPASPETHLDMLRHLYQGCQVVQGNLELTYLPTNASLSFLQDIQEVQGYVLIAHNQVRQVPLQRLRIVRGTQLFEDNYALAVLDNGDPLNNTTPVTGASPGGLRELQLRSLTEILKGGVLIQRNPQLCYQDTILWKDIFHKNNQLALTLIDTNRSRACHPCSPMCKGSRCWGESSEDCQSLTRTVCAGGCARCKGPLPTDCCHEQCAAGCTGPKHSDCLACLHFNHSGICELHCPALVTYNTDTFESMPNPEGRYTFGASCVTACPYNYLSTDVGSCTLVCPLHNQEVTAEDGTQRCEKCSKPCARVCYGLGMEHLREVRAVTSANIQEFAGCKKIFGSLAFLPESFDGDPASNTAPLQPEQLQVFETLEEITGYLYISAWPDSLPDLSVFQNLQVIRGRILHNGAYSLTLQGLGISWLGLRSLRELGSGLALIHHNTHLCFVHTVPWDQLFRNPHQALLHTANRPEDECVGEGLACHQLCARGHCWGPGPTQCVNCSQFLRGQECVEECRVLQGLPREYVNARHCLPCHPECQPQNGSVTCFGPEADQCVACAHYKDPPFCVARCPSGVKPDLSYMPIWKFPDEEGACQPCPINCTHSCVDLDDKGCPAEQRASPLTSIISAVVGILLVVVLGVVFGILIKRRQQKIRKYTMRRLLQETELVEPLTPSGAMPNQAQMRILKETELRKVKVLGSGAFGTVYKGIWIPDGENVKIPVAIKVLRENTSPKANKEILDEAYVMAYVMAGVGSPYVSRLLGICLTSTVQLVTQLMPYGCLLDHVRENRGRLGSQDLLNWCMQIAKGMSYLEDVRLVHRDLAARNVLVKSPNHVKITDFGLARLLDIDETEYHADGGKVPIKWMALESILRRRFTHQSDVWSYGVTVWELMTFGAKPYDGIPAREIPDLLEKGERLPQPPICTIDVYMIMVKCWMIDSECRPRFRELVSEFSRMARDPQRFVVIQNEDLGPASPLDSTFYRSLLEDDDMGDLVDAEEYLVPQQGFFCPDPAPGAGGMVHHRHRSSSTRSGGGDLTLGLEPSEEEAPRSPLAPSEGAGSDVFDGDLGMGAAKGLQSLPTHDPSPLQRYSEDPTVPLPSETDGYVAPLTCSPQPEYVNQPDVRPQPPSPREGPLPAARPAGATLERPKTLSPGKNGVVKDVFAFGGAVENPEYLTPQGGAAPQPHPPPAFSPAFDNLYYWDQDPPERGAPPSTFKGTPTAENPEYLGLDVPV
T2 sequence (P00533 25-1210): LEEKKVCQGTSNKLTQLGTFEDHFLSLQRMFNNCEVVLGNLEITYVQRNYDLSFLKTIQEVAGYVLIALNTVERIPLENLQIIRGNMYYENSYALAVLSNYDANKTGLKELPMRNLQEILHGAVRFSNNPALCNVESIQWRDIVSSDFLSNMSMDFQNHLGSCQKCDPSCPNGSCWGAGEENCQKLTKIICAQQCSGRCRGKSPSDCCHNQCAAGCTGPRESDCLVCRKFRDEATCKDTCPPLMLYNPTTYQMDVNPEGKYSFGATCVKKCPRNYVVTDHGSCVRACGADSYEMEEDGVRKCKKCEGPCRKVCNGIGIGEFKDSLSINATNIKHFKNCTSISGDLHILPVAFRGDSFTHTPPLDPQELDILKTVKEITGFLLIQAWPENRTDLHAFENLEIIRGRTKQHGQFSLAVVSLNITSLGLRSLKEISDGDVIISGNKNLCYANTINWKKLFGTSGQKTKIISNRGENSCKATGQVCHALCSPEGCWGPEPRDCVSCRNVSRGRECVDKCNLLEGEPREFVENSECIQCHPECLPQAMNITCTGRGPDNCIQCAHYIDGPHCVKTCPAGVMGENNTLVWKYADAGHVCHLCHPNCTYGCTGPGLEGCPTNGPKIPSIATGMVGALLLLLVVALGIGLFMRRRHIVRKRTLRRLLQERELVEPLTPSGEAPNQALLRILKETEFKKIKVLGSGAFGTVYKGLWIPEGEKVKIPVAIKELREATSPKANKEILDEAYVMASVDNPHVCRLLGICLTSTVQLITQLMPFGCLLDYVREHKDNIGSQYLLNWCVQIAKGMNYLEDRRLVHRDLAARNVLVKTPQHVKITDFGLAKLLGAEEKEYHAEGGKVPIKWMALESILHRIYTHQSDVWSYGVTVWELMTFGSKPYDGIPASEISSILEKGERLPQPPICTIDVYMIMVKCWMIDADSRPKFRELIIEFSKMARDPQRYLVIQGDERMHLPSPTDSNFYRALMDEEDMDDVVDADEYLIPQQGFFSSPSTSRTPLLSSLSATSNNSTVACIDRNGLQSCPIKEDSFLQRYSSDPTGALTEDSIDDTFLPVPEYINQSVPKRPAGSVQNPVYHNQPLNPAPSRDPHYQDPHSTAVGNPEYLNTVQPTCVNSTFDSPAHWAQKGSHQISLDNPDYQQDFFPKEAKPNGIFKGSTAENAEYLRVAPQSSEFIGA

For the compound `C#Cc1cc(Nc2ncnc3cnc(N4CC(NC(=O)C=C)C4)nc23)ccc1Oc1ccn2ncnc2c1` [Example I-10], the half-inhibitory concentration (IC50) stood at 24 nM at HER2 YVMA and 217 nM on EGFR wild type (WT). In addition, the GI50 in assay [1] worked out at 12 nM; in assay [2], 126 nM; in assay [3], 1460 nM; with Ba/F3 cells HER2 WT, 3 nM; in assay [4], 35 nM; in assay [5], 1650 nM.

Source of the values: patent US11608343B2, “Substituted pyrimido[5,4-d]pyrimidines as HER2 inhibitors” (Boehringer Ingelheim International GmbH, priority 2020, dated 2023).
